Reference: patent US9718781B2, “Methods and compounds for treating proliferative disorders and viral infections” (University College Dublin, National University of Ireland, …, priority 2012, dated 2017)
pIC50: −log10 of the molar value. Where “and” joins values, the source holds several entries; their conditions need not be identical. Equal values may be shown once. Read-outs that look alike come from different tables or passages of the source.

What was measured:
[1] = system: human platelets; assay: U46619-induced human platelet aggregation ex vivo (platelet rich plasma); type: cell-based; details: human platelets ex vivo, Table 3, read-out: IC50 data for inhibition of U46619-induced platelet aggregation
Source text: A modification of the turbidimetric method originally developed by Born & Cross (Born, G. V. and Cross, M. J., The Aggregation of Blood Platelets, J Physiol, 1963, 168:178-95) is used. The principle is based on the diffraction of the light by particles. When a light beam passes through a suspension of particles, it is diffracted, depending on the number and the size of the particles in suspension.
In the Born & Cross method, a light beam passes through a platelet suspension and the quantity of light is measured by a detector placed after the sample. Upon platelet aggregation, the size of platelet aggregates will increase while the total number of free platelets will decrease. Consequently, less light will be diffracted and the detector will record an increase in light intensity. The aggregometer has been developed based on these concepts. Variations in light transmission recorded by this device reflects the platelet physiology. When an agonist of platelet aggregation is added to a platelet suspension, platelets undergo activation and shape change. This step is characterized by an increase in platelet's apparent volume and thus a decrease of transmitted light. Subsequent platelet aggregation gradually forms aggregates of increasing size. Transmitted light slightly increases until a plateau is reached. The aggregation of platelet can be confirmed after the experiment by visual direct inspection of the test tube.
Preparation of platelet suspension is achieved by blood centrifugation at 160 g for 10 minutes. The PRP is re-centrifuged at 160 g for 10 min to remove contaminating red and white blood cells. The supernatant which is collected contains the platelets rich plasma (PRP). The remaining blood is subsequently centrifuged at 900 g for 15 min in order to retrieve plasma (platelets poor plasma, PPP). PRP is diluted with PPP to reach a final concentration of 150×10^3 […] PRP is kept warmed at 37° C. in the aggregometer and the adequate dilution of drug to test is introduced in the sample. Platelet aggregation is induced after 10 minutes incubation. Light transmission (T) is measured throughout the experiment, which is ended 8 minutes after induction of aggregation. Maximal light transmission (Tmax) is determined in the sample without drugs. Minimal light transmission (Tmin) is measured in PRP without inducer.
The effect of NTP4 and the previously identified lead TP antagonist, TP20, on U46619-mediated platelet aggregation in side-by-side comparisons was performed in platelet rich plasma (PRP) using the PAP-8E platelet aggregometer.
FIG. 4A-4C show the effect of TP20 & NTP4 on U46619-mediated platelet aggregation. PRP was prepared from blood taken from healthy volunteers into syringes containing 3.8% sodium citrate and 10 μM indomethacin such that the final ratio of anticoagulant to blood was 1:9. Aliquots of PRP (300 μl) were pre-incubated for 10 min with the TP antagonists, TP20 and NTP4, where 2-fold serial dilutions from 1 μM were prepared for each, prior to stimulating platelets with 1 μM U46619, incubated at 37° C., with stirring. FIG. 4A and FIG. 4B: Representative dose-response platelet aggregation profiles for TP20 (FIG. 4A) and NTP4 (FIG. 4B), where data is presented as Percentage Aggregation, as determined by changes in light transmission using the PAP-8E Platelet Aggregation Profiler as a function of time. FIG. 4C: The dose-response curves for platelet aggregation are presented as the mean (±S.E.M.) maximum Percentage Aggregation as a function of the log of the TP antagonist concentration. Data presented is representative of ≧6 independent experiments.

[2] = target: T1, TPα (Homo sapiens, UniProt P21731); assay: U46619-induced [Ca2+]i mobilization in HEK.TPα cells; type: cell-based; details: for pIC50: HEK.TPα cells, 1 μM U46619, Table 2, read-out: IC50 data for U46619-mediated [Ca2+]i mobilization, TPα; for TPα:TPβ Selectivity Ratio: IC50 TPα/IC50 TPβ
T1 construct: expressed in transfected cells
T1 sequence (P21731 1-343): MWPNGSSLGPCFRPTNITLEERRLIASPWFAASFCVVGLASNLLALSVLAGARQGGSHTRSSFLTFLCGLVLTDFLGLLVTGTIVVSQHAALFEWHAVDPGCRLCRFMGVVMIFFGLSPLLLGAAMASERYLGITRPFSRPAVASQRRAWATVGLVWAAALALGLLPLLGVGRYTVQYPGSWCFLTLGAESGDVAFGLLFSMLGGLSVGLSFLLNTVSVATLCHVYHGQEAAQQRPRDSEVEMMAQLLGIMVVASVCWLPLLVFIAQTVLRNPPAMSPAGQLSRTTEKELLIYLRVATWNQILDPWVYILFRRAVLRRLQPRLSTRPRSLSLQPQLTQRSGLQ
Source text: (§1) An appropriate functional test for the evaluation of the agonistic and/or antagonistic potency of the compounds of the invention is the determination of calcium flux. Both TPα and TPβ are coupled to the G-protein Gαq. Therefore, stimulation of these receptors ultimately leads to a release of intracellular calcium ([Ca^2+]i) from intracellular stores. Consequently, the determination of [Ca^2+]i flux represents an appropriate functional test for the evaluation of the agonistic/antagonistic potency of compounds of the invention. Calcium can be measured using a molecule characterized by the covalent combination of a Ca^2+ chelating group and a fluorophore group. The Ca^2+ binding properties of these indicators are formed by the presence of a tetracarboxylic acid core as found for example in EGTA (Ethylene Glycol bis(2-aminoethyl)Tetraacetic Acid). Binding of Ca^2+ produces a wavelength shift in either the excitation or emission fluorescence spectra or a change in the emission intensity. Whereas the Ca^2+ binding to EGTA is pH dependent, recent dyes are designed from an EGTA derivative, BAPTA (1,2-Bis(2-Aminophenoxy)ethane-N,N,N′,N′-Tetraacetic Acid). Loading of these dyes inside cells commonly uses esterified forms (acetoxymethyl ester), which are able to cross the cell membranes and are subsequently hydrolyzed by esterases inside the cell.
(§2) Estimation of [Ca^2+]i flux is calculated from the fluorescence signal (F). For calibration, the maximal fluorescence (Fmax, Ca^2+-saturated form of the dye) as well as minimal fluorescence (Fmin, Ca^2+-free form of the dye) must be determined. These parameters are determined usually in situ after the experiment, for example by subsequent addition to the mixture of a cell-disrupting agent that releases all Ca^2+ such as Triton X100 and a potent Ca^2+-chelating agent such as EGTA. After subtraction of background fluorescence, [Ca^2+]; flux can be calculated for non-ratiometric indicators.
(§3) Intracellular [Ca^2+]; fluxes were measured using a fluorescence plate reader following a modified protocol of Kassack et al., ‘Quantitative comparison of functional screening by measuring intracellular Ca^2+ with radioligand binding at recombinant human dopamine receptors’, AAPS Pharmsci, 2002, 4(4); 102-111, in cell lines (e.g. HEK293 or other cell type) endogenously-expressing or over-expressing either TPα, TPβ or any other receptor or protein to be screened.
(§4) By way of example, HEK 293 cells which have been grown for 3-4 days in normal growth media (minimum essential media containing 10% FBS and 2 mmol/1 L-glutamine), under normal growth conditions (37° C., in humidified 5% CO2 atmosphere) are washed and harvested in KREBs-HEPES buffer (118 mM NaCl, 4.7 mM KCl, 1.2 mM MgSO4, 1.2 mM KH2PO4, 4.2 mM NaHCO3, 11.7 mM D-glucose, 1.3 mM CaCl2, 10 mM HEPES, pH 7.4). Cells are then incubated with 3 μM Fluo-4 in KREBs-HEPES buffer containing 1% Pluoronic F-127, for 1 hr at 25° C. with agitation. Then, cells are washed in KREBs-HEPES buffer containing 0.5% BSA and re-suspended at a final concentration of 3×10^5 cells/ml. Approx. 5.4×10^4 cells per well are plated in a 96-well plate and pre-incubated with test compounds for 10 m prior to measuring the fluorescence intensity at 520 nm for 25 seconds at 1 s intervals to monitor baseline using the Fluoroskan Ascent. Agonist (e.g., 1 μM U46619) is injected into separate wells by the automatic pipettor and fluorescence intensity is monitored at 520 nm for 75 seconds at 1 s intervals. Thereafter, Triton X100 and EGTA are added sequentially where Fmax refers to maximal fluorescence intensity measured after permeabilization of the cells with 2% Triton X100 and Fmin refers to fluorescence intensity measured after addition of 1 mM EGTA.
(§5) The dye Fluo-4 has its excitation peak at 480 nm, in the visible spectra, which spare cells to be damaged by UV (340-360 nm) stimulation and reduces auto-fluorescence of cells. […]

[3] = target: T2, TPβ (Homo sapiens, UniProt P21731); assay: U46619-induced [Ca2+]i mobilization in HEK.TPβ cells; type: cell-based; details: HEK.TPβ cells; 1 μM U46619; Table 2; read-out: IC50 data for U46619-mediated [Ca2+]i mobilization, TPβ
T2 construct: expressed in transfected cells
Source text: as §1, §2, §3, §4, §5

[4] = system: A/Puerto Rico/8/1934 (H1N1) influenza A virus; type: in vivo, BALB/c mice
[5] = system: human platelets; assay: ADP-induced platelet aggregation of human platelets ex vivo; type: cell-based
Source text: (§6) The method of assessing platelet aggregation also allows evaluation of the effect of the compounds of the invention on platelet aggregation upon stimulation by other agonists, e.g., adenosine diphosphate (ADP) and thrombin.

[6] = system: human platelets; assay: Thrombin-induced platelet aggregation of human platelets ex vivo; type: cell-based
Source text: as §6

[7] = lung, Day 4, Tamiflu 10 mg/kg, TP20 0.36 mg/kg
[8] = lung, Day 4, number of animals of 3

T2 sequence (P21731 1-407 isoform P21731-2): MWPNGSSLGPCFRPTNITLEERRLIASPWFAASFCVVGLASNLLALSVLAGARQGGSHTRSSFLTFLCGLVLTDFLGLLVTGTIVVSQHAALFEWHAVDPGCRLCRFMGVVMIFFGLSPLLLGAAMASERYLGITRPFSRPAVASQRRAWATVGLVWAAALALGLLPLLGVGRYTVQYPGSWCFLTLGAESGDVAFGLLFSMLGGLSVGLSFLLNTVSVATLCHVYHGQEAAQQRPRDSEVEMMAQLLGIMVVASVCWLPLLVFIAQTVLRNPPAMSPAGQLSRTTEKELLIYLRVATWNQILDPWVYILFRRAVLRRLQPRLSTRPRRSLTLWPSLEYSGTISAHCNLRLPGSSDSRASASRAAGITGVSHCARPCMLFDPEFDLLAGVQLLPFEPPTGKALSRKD

Compound: COc1cccc(Oc2ccc([N+](=O)[O-])cc2S(=O)(=O)NC(=O)NC(C)(C)C)c1 [Compound 9h, reference compound]
- pIC50 ([1]; Homo sapiens, Platelet): 6.29
- pIC50 [2]: 6.21
- TPα:TPβ Selectivity Ratio [2]: 2.3
- pIC50 [3]: 6.57

Compound: O=C(O)CCC/C=C\CC1C2CCC(O2)C1CNNC(=O)Nc1ccccc1 (stereo not shown) [SQ29,548, reference compound]
- pIC50 ([1]; Homo sapiens, Platelet): 8.08

Compound: CCOC(=O)C1=C[C@@H](OC(CC)CC)[C@H](NC(C)=O)[C@@H](N)C1 [Tamiflu]
- survival over the study ([4]; Tamiflu 10 mg/kg, TP20 360 μg/kg, 14 days): survived the full duration
- Alveolar Acute Inflammation, number of animals with the finding ([4]; lung, Day 4, 3 animals): (1)
- Bronchiolar Erosion, number of animals with the finding ([4]; lung, Day 4, 3 animals): (3)
- Bronchiolar Exudate, number of animals with the finding ([4]; lung, Day 4, 3 animals): (3)
- Bronchiolar acute Inflammation, number of animals with the finding ([4]; lung, Day 4, 3 animals): (3)
- Vascular Necrosis, number of animals with the finding ([4]; lung, Day 4, 3 animals): (0)
- Extent of Perivascular Edema (Mean ± S.E.M.), Per Animal [4, 7]: 21.2 ± 1.71 (52) arbitrary units and 20.7 ± 1.21 (66) arbitrary units and 19.3 ± 1.24 (77) arbitrary units
- Extent of Perivascular Edema (Mean ± S.E.M.), Per Treatment Group [4, 7]: 20.6 ± 0.90 arbitrary units
- reduction in the perivascular edema compared to vehicle [4, 7]: does not reduce the extent of perivascular edema
- Alveolar Acute Inflammation, Minimal [4, 8]: 1
- Bronchiolar Erosion, Mild [4, 8]: 2
- Bronchiolar Erosion, Minimal [4, 8]: 0
- Bronchiolar Erosion, Moderate [4, 8]: 1
- Bronchiolar Exudate, Mild [4, 8]: 2
- Bronchiolar Exudate, Minimal [4, 8]: 1
- Bronchiolar Exudate, Moderate [4, 8]: 0
- Bronchiolar acute Inflammation, Mild [4, 8]: 3
- Bronchiolar acute Inflammation, Minimal [4, 8]: 0
- Perivascular Edema, Mild [4, 8]: 1
- Perivascular Edema, Minimal [4, 8]: 1
- Day of Minimum Body Weight Recorded, Mean (Mean Day to Recovery) ([4]; mouse, in vivo): 8.4
- Day of Minimum Body Weight Recorded, per animal ([4]; mouse, in vivo): 9 (7×) and 7 (3×)
- Perivascular Edema, number of animals with the finding ([4]; mouse, in vivo): (2)
- Weight @ Day 0 ([4]; n = 10/group): 17.56 ± 0.18
- Weight @ Day 14 ([4]; n = 10/group): 17.4 ± 0.32

Compound: CC(C)(C)NC(=O)NS(=O)(=O)c1cc([N+](=O)[O-])ccc1Oc1cccc(-c2ccc(C(F)(F)F)cc2)c1 [XII]
- pIC50 ([1]; Homo sapiens, Platelet): 6.89
- pIC50 [2]: 7.05
- TPα:TPβ Selectivity Ratio [2]: 1
- pIC50 [3]: 7.07
- effect on ADP-induced platelet aggregation [5]: did not affect
- effect on thrombin-induced platelet aggregation [6]: did not affect

Compound: Cc1ccc(-c2cccc(Oc3ccc([N+](=O)[O-])cc3S(=O)(=O)NC(=O)NC(C)(C)C)c2)cc1 [XLI]
- pIC50 ([1]; Homo sapiens, Platelet): 6.64
- pIC50 [2]: 6.97
- TPα:TPβ Selectivity Ratio [2]: 6.4
- pIC50 [3]: 7.78
- effect on ADP-induced platelet aggregation [5]: did not affect
- effect on thrombin-induced platelet aggregation [6]: did not affect

Compound: COC(=O)c1ccc(-c2cccc(Oc3ccc([N+](=O)[O-])cc3S(=O)(=O)NC(=O)NC(C)(C)C)c2)cc1 [XLVI]
- pIC50 ([1]; Homo sapiens, Platelet): 8.39
- pIC50 [2]: 6.94
- TPα:TPβ Selectivity Ratio [2]: 3
- pIC50 [3]: 7.44
- effect on ADP-induced platelet aggregation [5]: did not affect
- effect on thrombin-induced platelet aggregation [6]: did not affect

Compound: CC(=O)c1ccc(-c2cccc(Oc3ccc([N+](=O)[O-])cc3S(=O)(=O)NC(=O)NC(C)(C)C)c2)cc1 [XLV]
- pIC50 ([1]; Homo sapiens, Platelet): 6.80
- pIC50 [2]: 6.73
- TPα:TPβ Selectivity Ratio [2]: 5.5
- pIC50 [3]: 7.47
- effect on ADP-induced platelet aggregation [5]: did not affect
- effect on thrombin-induced platelet aggregation [6]: did not affect

Compound: N-(tert-butylcarbamoyl)-2-(3-methoxyphenoxy)-5-nitrobenzenesulfonamide [Compound 9ag, reference compound]
- pIC50 [1]: 6.01
- pIC50 [2]: 5.76
- TPα:TPβ Selectivity Ratio [2]: 4.5
- pIC50 [3]: 6.42
